# Literature values, collected in patent US20190289847A1, “SUSTAINED RELEASE FIBERS” (INVISTA TEXTILES (U.K.) LIMITED, priority 2016, published 2019).
# Legend:
# fleas and ticks = settings: literature
structure (smiles),measurement,setting,value
O=C(Oc1ccccc1)c1ccccc1O [phenyl salicylate],effectiveness against fleas and ticks,fleas and ticks,effective
same,duration of efficacy,"dust mites; applied in a typical manner, i.e. topical application, at best",3-4 months
same,effectiveness against dust mites,dust mites; literature,effective
